Kd data for 1 compound are collected here from publication PMC8238920, “Functional inhibition of lactate dehydrogenase suppresses pancreatic adenocarcinoma progression” (Clinical and Translational Medicine, 2021).

The assay deals with T1, lactate dehydrogenase A (LDHA) (Homo sapiens, UniProt P00338).
T1 construct: his-tag LDHA human recombinant protein (Cat. No. 71081, BPS Bioscience)
Briefly: SPR (Biacore T200, LDHA immobilized on CM5 chip, berberine […]). In kind it is binding.

As usually defined, the Kd is the concentration at which binding is half-saturated. The compound `COc1ccc2cc3[n+](cc2c1OC)CCc1cc2c(cc1-3)OCO2` [BBR, berberine] displayed a Kd of 4.59 µM.
